“And” between values parts separate entries of the source, which are not always exact repeats. Identical values can stand only once.
What was measured:
[1] = tested on: phylloxera Biotype A; assay: planter / field box vines, leaf spray, phylloxera population on roots; type: in vivo, Daktulosphaira vitifoliae; settings: for Number of phylloxera per root piece: Merlot, two weeks; for reduction of population versus control vines: field planter boxes, after two weeks; for phylloxera population, Mean ± 95% CI: boxed 1 year old Merlot
Source text: Planter boxes are wooden boxes with a top surface area of 1.5 m×1 m and are 1.5 m tall. They were filled with a clay-loam soil and each was planted to 4 one-year old Merlot plants in early spring, 1995. They were infested with biotype A phylloxera in May, 1995 by placing about 150 eggs adjacent to an attached root under the soil surface. The plants were irrigated weekly with a fine mist. Treatments were made at various times in July and August 1995 using the household 1 liter-capacity plastic spray bottles, spraying to runoff. At one or two weeks after treatment, plants root systems were removed from the soil and total phylloxera populations were estimated.

[2] = tested on: pacific mites; assay: pacific mites on Chardonnay grapes, 0.4% spray; type: in vivo
Method: The effect of 0.4% cinnamic aldehyde on powdery mildew and pacific mites on grapes was examined. Cinnamic aldehyde was diluted to 0.4% in water and sprayed onto a 1.8 acre test plot of Chardonnay grapevines with a tractor drawn, PTO powered sprayer, spraying at approximately 100 psi at a rate of 150 gal./acre. A 3 acre untreated plot served as a negative control. Additional controls included treatment of a 3.8 acre plot with stylet oil and a plot treated with a mix of Rubigan, Omite, and stylet oil, which cost appriximately $60.00/acre. Spray cards were placed randomly through the test block. Ten fruit clusters, which were generally completely covered with powdery mildew, in each of the four fields were flagged. […] Therefore, cinnamic aldehyde was effective at controlling both powdery mildew and pacific mites on grapes.

[3] = CNMA 0.4% in water, 150 gal./acre, controls stylet oil, chemical mix

O=C/C=C/c1ccccc1 [cinnamic aldehyde]
Number of phylloxera per root piece ([1]; 1 K CNMA, one value per plant): 133 and 72 and 95 | Number of phylloxera per root piece ([1]; 20 K (20,000 ppm CNMA in 6% NaHCO3 and 2% Tween-80)): 16 | reduction of population versus control vines ([1]; 1,000 ppm leaf spray): 92% | reduction of population versus control vines ([1]; 10,000 ppm leaf spray): 95% | phylloxera population, Mean ± 95% CI ([1]; foliage to runoff, 1000 ppm, Exp. 1): 100 ± 31 | phylloxera population, Mean ± 95% CI ([1]; foliage to runoff, 1000 ppm, Exp. 2): 58 ± 17 | phylloxera population, Mean ± 95% CI ([1]; foliage to runoff, 10,000 ppm, Exp. 1): 60 ± 37 | phylloxera population, Mean ± 95% CI ([1]; foliage to runoff, 10,000 ppm, Exp. 2): 43 ± 56 | % INHIBITION (MITES) [2, 3]: 96% | MITES POST-SPRAY [2, 3]: 1.6 | MITES PRE-SPRAY ([2]; baseline, CNMA 0.4% plot, stylet oil plot, chemical mix plot): 36

— patent US20030005484A1, “Microbiocidal and pesticidal aromatic aldehydes” (ProGuard, Inc., priority 1994, published 2003)
